Measurements published in US20240189263A1, “DERIVATIZED C60 MOLECULES AND METHODS AND MATERIALS FOR USING DERIVATIZED C60 MOLECULES TO REDUCE RADIATION INJURY” (Mayo Foundation for Medical Education and Research, priority 2021, published 2024).

Key:
HUVEC cells = assay: MTS cytotoxicity assay, HUVEC; format: cell-based; details: 1-1000 μM, 24, 48 or 72 hours
Method: Cytotoxicity of C60-ser was determined by an MTS (3-(4,5-dimethylthiazol-2-yl)-5-(3-carboxymethoxyphenyl)-2-(4-sulfophenyl)-2H-tetrazolim) colorimetric assay on four different cell lines, each representing a different cell type. Specifically, HepG2 (liver epithelium), HUVEC (endothelial cells), N2A (neuroblastoma cells representative of normal neurons), and NIH3T3 (fibroblasts) were analyzed. The cells were seed in a 96-well tissue culture polystyrene plate at different seeding concentrations based on the cell's doubling time. HUVEC cells were seeded at 10,000 cells/well (24 hour experiments), 8,000 cells/well (48 hour experiments), and 5,000 cells/well (72 hour experiments), and incubated for 24 hours in a humidified atmosphere with 5% C02 at 37° C. […] After incubation with MTS, the optical density (OD) of the resulting formazan solution was read at 490 nm using a microplate reader (Biotek Cytation 5 cell Imaging Multi-Mode reader, Winooski, VT). The cell viability was obtained by normalizing the absorbance of the sample with that of the control wells containing untreated cells. The cell viability was expressed as a percentage, assigning the viability of non-treated cells as 100%. […]

C57B16 mice = assay: Whole body radiation protection, survival; format: in vivo
NIH3T3 cells = assay: ROS by H2-DCFDA probe after proton irradiation, NIH3T3; format: cell-based; details: NIH3T3, pretreated 100 μM, TBHP 200 μM, 1 Gy proton, read 30 minutes post radiation
Description: Cell lines were irradiated using pencil beam scanning (PBS) proton beams produced by IBA ProteusOne (Ion Beam Applications, Louvain-la-Neuve, Belgium). Single layer mono-energy 227 MeV pencil beams with uniform spacing of 0.25 cm between each spot were used to create a large field size with uniform dose distribution (±2%) that encompassed all sample wells containing the cells. A fixed source to surface distance (SSD) setup and gantry at 180 degrees was used to delivery 0.5, 1, 2, 4, and 6 Gray (Gy) dose of ionizing radiation to cells. The cells were place at an 8 cm depth, with a linear energy transfer (LET) of approximately 1.7 keV/μm, using solid water slabs as a buildup. […] The monitor units needed to deliver the intended dose were calculated using the measure dose/MU values.
Post radiation, 2′,7′-dichlorodihydrofluorescein diacetate (H2-DCFDA) probes were used to measure the level of reactive oxygen species (ROS) post-proton radiation (1 Gy, 230 MeV proton beam). […] A fluorescence microplate reader (SpectraMax M5, Molecular Devices Corporation, California, USA) was used to detect the generation of fluorescent DCF molecules with an excitation filter of 485 nm and an emission filter of 525 nm, with a 515 nm cutoff filter. […] Following irradiation, the cells were transported back for plate reading, 30 minutes post radiation.

[1] = test system: Panc02 tumor on the thigh of C57B16 mice; assay: Syngeneic mouse model of pancreatic cancer, tumor volume under radiation; format: in vivo; details: 700 mg/kg per os once 12 hours before first radiation, with capecitabine 350 mg/kg 5 days, 2 Gy x 5 days, 20 days
Method: A syngeneic mouse model of pancreatic cancer (Panc02 growing on the thigh of C57B16 mice) was used to evaluate the effects of C60-ser on in vivo tumors. Mice were treated with 350 mg/kg capecitabine via per os gavage for 5 days 1 hour before radiation (RT+Cape), or capecitabine treatment with a single dose of 700 mg/kg C60-ser via per os gavage once 12 hours before the first dose of radiation (RT+Cape+c60 Ser). Mice were exposed to 2 Gy of radiation (RT) once per day for 5 days. A control group (Cont) without treatment also was exposure to the radiation treatment. Normalized tumor volumes were monitored for 20 days.

HepG2 cells = assay: Seahorse mitochondrial respiration (oxygen consumption rate), HepG2; format: cell-based; details: HepG2, pretreated 2 hours before 1 Gy 230 MeV proton
Method: The oxygen consumption rates were assessed in N2A, HUVEC, NIH3T3, and HepG2 cell lines with a Seahorse XFe96 (Agilent Technologies, Santa Clara, CA, USA). Cells were treated with 0 and 1 Gy of 230 MeV proton irradiation. The control plates were run at about the same time post plating. Each cell line was optimized prior to these experiments, and data was presented normalized to cell number plated. The standard mitochondrial stress test was performed using serial injections of oligomycin (1.5 μM), carbonyl cyanide p-(trifluoromethoxy)phenylhydrazone (FCCP, 1 μM), and rotenone/antimycin A mixture (0.5 μM). After injection of oligomycin, which inhibits ATP synthase (complex V), there was a drop in electron flow through the electron transport chain (ETC) and a resultant drop in oxygen consumption rate (OCR) of the cells. Injection of FCCP collapsed the proton gradient and allowed for uninhibited electron flow through the ETC supercomplexes. […] The reserve respiratory capacity was calculated by subtracting the basal respiratory capacity from the maximal respiratory capacity.

[2] = SEM analysis of C60-ser aggregates; format: physicochemical; details: frozen and vacuum-dried solutions
Method: Solutions of C60-ser were frozen with liquid nitrogen and dried under high vacuum while still frozen. FIGS. 3A and 3B show example scanning electron microscopy (SEM) images of aggregates of C60-ser. The aggregates formed when solid C60-ser was dissolved in water or an aqueous salt solution. The aggregates formed within a period of seconds to several hours, after which the system remained in equilibrium.

For `O=C(NC(CO)CO)C1(C(=O)NC(CO)CO)C23c4c5c6c7c8c4-c4c2c2c9c%10c4C4%11c%12c-%10c%10c%13c%14c%12-c%12c(c-7c7c%15c%12C%14%12C(C(=O)NC(CO)CO)(C(=O)NC(CO)CO)C%12%14c%12c%16c%17c%18c(c%12-%15)C7%12C(C(=O)NC(CO)CO)(C(=O)NC(CO)CO)C6%12c6c-5c5c7c(c6-%18)C%176C(C(=O)NC(CO)CO)(C(=O)NC(CO)CO)C6%12c6c-7c(c-2c2c6-c6c%12c-%16c%14c-%13c6C%106C(C(=O)NC(CO)CO)(C(=O)NC(CO)CO)C926)C513)C84C%11(C(=O)NC(CO)CO)C(=O)NC(CO)CO` (centres unmarked) [C60-ser, C60-serinol], the percent viability (HUVEC cells) was “did not result in a significant decrease in viability”, the “protection from whole body x-ray radiation-induced death” value (C57B16 mice; given systemically 12 hours after radiation) was “protected mice from whole body x-ray radiation-induced death” and the “survival over 45 day study” value (C57B16 mice; per os 700 mg/kg 12 hours before 9.5 Gy whole-body x-ray, then 70 mg/kg daily for eight days) was 100%. The “survival over 45 day study” value (C57B16 mice; per os 700 mg/kg once 12 hours before 9.5 Gy whole-body x-ray) was 100%, the “ROS (H2-DCFDA fluorescence)” value (NIH3T3 cells) was “significant reduction in ROS” and the “normalized tumor volume vs capecitabine alone” value [1] was “not significantly different in normalized tumor volume”. The “radiation-induced increase in respiratory capacity” value (HepG2 cells) was “dampened and, in some cases, reduced to normal or slightly below normal levels” and the “internal diameters of hollow hull aggregates” value [2] was 40-1000 nm.
